# Experimental data published in patent publication US12070033B1, “Aquatic herbicide having non-herbicidal functional ingredients” (SePRO Corporation, priority 2019, dated 2024).
# Tested on: hydrilla
# Experiment: Total phosphorus extracted from hydrilla and from the water in which it was located
# Type: in vivo, Hydrilla verticillata
# Conditions: 5 ppm dipotassium endothall
# Procedure: Turning now to FIG. 7, treatment of aquatic weeds with the aquatic herbicidal formulation results in both an increased release of nutrients, such as phosphorus, from treated plants and a reduction from the water column of those nutrients released. In one experiment, total phosphorus was extracted from hydrilla and from water in which the hydrilla was located. In one test group, the hydrilla was untreated (control group). In a second test group, the hydrilla was treated with Formulation 1 (5 ppm dipotassium endothall) and, in a third test group, the hydrilla was treated with Aquathol® K (5 ppm dipotassium endothall). In the untreated control group, the plants remained healthy and pulled available phosphorus from the water column, resulting in a lower amount of phosphorus in the water (indicated by the darker shading at the bottom of each column) as compared to groups treated with Formulation 1 and Aquathol® K (as indicated by the lighter shading at the top of each column).
compound,measurement,value
O=C([O-])[C@@H]1[C@H](C(=O)[O-])[C@H]2CC[C@@H]1O2.[K+].[K+] [dipotassium endothall],plant's phosphorus released into the water,approximately 27%
